Laboratory results published in patent publication US20180311217A1, “METHODS OF TREATMENT AND COMPOSITIONS WITH XANTHINE OXIDASE INHIBITORS” (Takeda Pharmaceuticals U.S.A., Inc., priority 2013, published 2018).
Where two headings read alike, the source gives them in different places. Marks after values point to notes of the source that are not given here.

Columns and labels:
[1] = Study TMX-99-001: febuxostat plasma pharmacokinetics; assay type: in vivo, human; set-up: AUC24/Dose: unit not given here; conditions: mean; for MRT inf / AUC / partial AUC from 0 to 4 hours: human, plasma, oral; for partial AUC from 0 to 4 hours: read-out: AUC0-4
[2] = tested on: hyperuricemic gout subjects with moderate to severe renal impairment; assay: Example 1 study: subjects experiencing gout flares; assay type: in vivo, human
Method: All subjects received colchicine 0.6 mg every other day (QOD) from the initial screening visit through the Month 6 visit only. Alternatively, if colchicine was not tolerated by the subject, prednisone may have been provided at the investigator's discretion in accordance with the stated guidelines listed under Prohibited Concomitant Medications.
All subjects were instructed to take colchicine 0.6 mg QOD for prophylaxis. Colchicine began at the Screening Day −21 visit for all subjects. Subjects received colchicine 0.6 mg QOD through the Month 6 visit.
Subjects were assessed for gout flares from the time the ICF was signed and throughout the duration of the study. Subjects were instructed to call the Investigator as soon as they thought they were having a gout flare. The Gout Flare Assessment Worksheet was completed by the site personnel (ie, study coordinator, study nurse, or the investigator).
Subjects were instructed to report the following information: the onset and end date of the flare, the kind of prophylaxis medication they were taking at the time of the event, whether or not the attack required medication (including type) and dates of treatment, the location of the flare, signs and symptoms regarding the flare including the severity, subjects' pain intensity (pain in rest), and the assessment of current gout flare compared to all previous gout flares in any joints. In addition, the subjects were asked an exploratory question in nature: the subject was asked during their current gout attack to indicate the degree of which the subject's physical mobility had been limited (on a scale of 0-10). The investigator reviewed the information provided and assessed whether or not they believed the subject experienced a gout flare and/or documented an alternative etiology.
Summary statistics for the number and percentage of subjects experiencing a gout flare were summarized by treatment group within the following intervals: Day 1 to Month 2 (Day 1 to 60), Month 2 to 4 (Day 61 to 120), Month 4 to 6 (Day 121 to 180), Month 6 to 8 (Day 181 to 240), Month 8 to 10 (Day 241 to 300), Month 10 to 12 (>day 301, and overall Day 1 to Month 6, and Month 6 to Month 12. All gout flares with onset after Day 301 (including those reported <30 days since last dose) were included in the Month 10 to 12 interval.

Cc1nc(-c2ccc(OCC(C)C)c(C#N)c2)sc1C(=O)O [Febuxostat, 2-[3-cyano-4-(2-methylpropoxy)phenyl]-4-methylthiazole-5-carboxylic acid]
Tmax ([1]; IR 30 mg BID): 0.70 h
Tmin ([1]; IR 30 mg BID): 24.00 h
AUC24/Dose ([1]; IR 30 mg BID, AM + PM dose (60 mg)): 103.73
Cmax ([1]; IR 30 mg BID, Cmax following AM dose): 1488.00 ng/mL
Cmax/dose ([1]; IR 30 mg BID, Cmax following AM dose/AM dose (30 mg)): 49.60 ng/mL/mg
Cmin ([1]; IR 30 mg BID, terminal phase of PM dose): 59.58 ng/mL
AUC24/Dose ([1]; IR 30 mg single dose): 84.16
Cmax ([1]; IR 30 mg single dose): 1283.54 ng/mL
Cmax/dose ([1]; IR 30 mg single dose): 42.78 ng/mL/mg
Tmax ([1]; IR 30 mg single dose): 0.89 h
Tmin ([1]; IR 30 mg single dose): 16.89 h
Cmin ([1]; IR 30 mg single dose, terminal phase at or before 24 hours): 17.50 ng/mL
AUC4-24 ([1]; IR 40 mg single dose): 941.11 ng·h/mL
AUC24 ([1]; IR 40 mg single dose): 4295.13 ng·h/mL
AUC24/Dose ([1]; IR 40 mg single dose): 107.38
Cmax ([1]; IR 40 mg single dose): 1822.11 ng/mL
Cmax/dose ([1]; IR 40 mg single dose): 45.55 ng/mL/mg
Tmax ([1]; IR 40 mg single dose): 1.19 h
Tmin ([1]; IR 40 mg single dose): 21.00 h
Cmin ([1]; IR 40 mg single dose, terminal phase at or before 24 hours): 15.13 ng/mL
AUC0-4 ([1]; IR 50 mg single dose): 3116.06 ng·h/mL
AUC24 ([1]; IR 50 mg single dose): 4374.36 ng·h/mL
AUC24/Dose ([1]; IR 50 mg single dose): 87.49
Cmax ([1]; IR 50 mg single dose): 1791.71 ng/mL
Cmax/dose ([1]; IR 50 mg single dose): 35.83 ng/mL/mg
Tmax ([1]; IR 50 mg single dose): 1.14 h
Tmin ([1]; IR 50 mg single dose): 22.00 h
Cmin ([1]; IR 50 mg single dose, terminal phase at or before 24 hours): 15.98 ng/mL
AUC24 ([1]; IR 70 mg single dose): 6948.21 ng·h/mL
AUC24/Dose ([1]; IR 70 mg single dose): 99.26
Cmax ([1]; IR 70 mg single dose): 2689.91 ng/mL
Cmax/dose ([1]; IR 70 mg single dose): 38.43 ng/mL/mg
Tmax ([1]; IR 70 mg single dose): 1.10 h
Tmin ([1]; IR 70 mg single dose): 23.20 h
Cmin ([1]; IR 70 mg single dose, terminal phase at or before 24 hours): 23.81 ng/mL
AUC0-4 ([1]; IR 90 mg single dose): 6893.00 ng·h/mL
AUC24/Dose ([1]; IR 90 mg single dose): 104.36
Cmax ([1]; IR 90 mg single dose): 4061.63 ng/mL
Cmax/dose ([1]; IR 90 mg single dose): 45.13 ng/mL/mg
Tmin ([1]; IR 90 mg single dose): 24.00 h
Cmin ([1]; IR 90 mg single dose, terminal phase at or before 24 hours): 27.53 ng/mL
AUC24 ([1]; IR 120 mg single dose): 11959.93 ng·h/mL
AUC24/Dose ([1]; IR 120 mg single dose): 99.67
Cmax ([1]; IR 120 mg single dose): 5307.58 ng/mL
Cmax/dose ([1]; IR 120 mg single dose): 44.23 ng/mL/mg
Tmax ([1]; IR 120 mg single dose): 1.11 h
Tmin ([1]; IR 120 mg single dose): 24.00 h
Cmin ([1]; IR 120 mg single dose, terminal phase at or before 24 hours): 41.49 ng/mL
AUC24 ([1]; IR 160 mg single dose): 22282.12 ng·h/mL
AUC24/Dose ([1]; IR 160 mg single dose): 139.26
Cmax ([1]; IR 160 mg single dose): 8771.07 ng/mL
Cmax/dose ([1]; IR 160 mg single dose): 54.82 ng/mL/mg
Tmax ([1]; IR 160 mg single dose): 0.80 h
Tmin ([1]; IR 160 mg single dose): 22.80 h
Cmin ([1]; IR 160 mg single dose, terminal phase at or before 24 hours): 79.88 ng/mL
AUC24 ([1]; IR 180 mg single dose): 23954.54 ng·h/mL
AUC24/Dose ([1]; IR 180 mg single dose): 133.08
Cmax ([1]; IR 180 mg single dose): 8048.76 ng/mL
Cmax/dose ([1]; IR 180 mg single dose): 44.72 ng/mL/mg
Tmin ([1]; IR 180 mg single dose): 24.00 h
Cmin ([1]; IR 180 mg single dose, terminal phase at or before 24 hours): 75.73 ng/mL
AUC24 ([1]; IR 240 mg single dose): 34976.26 ng·h/mL
AUC24/Dose ([1]; IR 240 mg single dose): 145.73
Cmax ([1]; IR 240 mg single dose): 11263.03 ng/mL
Cmax/dose ([1]; IR 240 mg single dose): 46.93 ng/mL/mg
Tmax ([1]; IR 240 mg single dose): 0.94 h
Tmin ([1]; IR 240 mg single dose): 24.00 h
Cmin ([1]; IR 240 mg single dose, terminal phase at or before 24 hours): 71.30 ng/mL
MRT inf ([1]; 30 mg, IR 30 mg BID): 18.6 h
AUC ([1]; 30 mg, IR 30 mg BID, following AM and PM dose, read-out: AUC4-24): 3980 ng·h/mL
AUC ([1]; 30 mg, IR 30 mg BID, following AM and PM dose, read-out: AUC24): 6220 ng·h/mL
partial AUC from 0 to 4 hours ([1]; 30 mg, IR 30 mg BID, following AM dose): 2240 ng·h/mL
MRT inf ([1]; 30 mg, IR 30 mg single dose): 4.99 h
partial AUC from 0 to 4 hours ([1]; 30 mg, IR 30 mg single dose): 1900 ng·h/mL
AUC ([1]; 30 mg, IR 30 mg single dose, read-out: AUC4-24): 629 ng·h/mL
AUC ([1]; 30 mg, IR 30 mg single dose, read-out: AUC24): 2520 ng·h/mL
MRT inf ([1]; 40 mg, IR 40 mg single dose): 4.54 h
partial AUC from 0 to 4 hours ([1]; 40 mg, IR 40 mg single dose): 3350 ng·h/mL
MRT inf ([1]; 50 mg, IR 50 mg single dose): 5 h
AUC ([1]; 50 mg, IR 50 mg single dose, read-out: AUC4-24): 1260 ng·h/mL
MRT inf ([1]; 70 mg, IR 70 mg single dose): 5 h
partial AUC from 0 to 4 hours ([1]; 70 mg, IR 70 mg single dose): 5280 ng·h/mL
AUC ([1]; 70 mg, IR 70 mg single dose, read-out: AUC4-24): 1670 ng·h/mL
MRT inf ([1]; 90 mg, IR 90 mg single dose): 5.81 h
AUC ([1]; 90 mg, IR 90 mg single dose, read-out: AUC4-24): 2500 ng·h/mL
AUC ([1]; 90 mg, IR 90 mg single dose, read-out: AUC24): 9390 ng·h/mL
MRT inf ([1]; 120 mg, IR 120 mg single dose): 5.43 h
partial AUC from 0 to 4 hours ([1]; 120 mg, IR 120 mg single dose): 8590 ng·h/mL
AUC ([1]; 120 mg, IR 120 mg single dose, read-out: AUC4-24): 3370 ng·h/mL
MRT inf ([1]; 160 mg, IR 160 mg single dose): 4.65 h
partial AUC from 0 to 4 hours ([1]; 160 mg, IR 160 mg single dose): 16400 ng·h/mL
AUC ([1]; 160 mg, IR 160 mg single dose, read-out: AUC4-24): 5840 ng·h/mL
MRT inf ([1]; 180 mg, IR 180 mg single dose): 5.53 h
partial AUC from 0 to 4 hours ([1]; 180 mg, IR 180 mg single dose): 16800 ng·h/mL
AUC ([1]; 180 mg, IR 180 mg single dose, read-out: AUC4-24): 7150 ng·h/mL
MRT inf ([1]; 240 mg, IR 240 mg single dose): 4.32 h
partial AUC from 0 to 4 hours ([1]; 240 mg, IR 240 mg single dose): 25100 ng·h/mL
AUC ([1]; 240 mg, IR 240 mg single dose, read-out: AUC4-24): 9900 ng·h/mL
Percentage of Subjects With Gout Flares ([2]; 30 mg BID, 2 to ≤4 months): (10.7) %
Percentage of Subjects With Gout Flares ([2]; 30 mg BID, 4 to ≤6 months): (14.3) %
Percentage of Subjects With Gout Flares ([2]; 30 mg BID, 4 to ≤6 months, listed as febuxostat): 14.3%
Percentage of Subjects With Gout Flares ([2]; 30 mg BID, 6 to ≤8 months (after prophylaxis ended)): (26.3) %
Percentage of Subjects With Gout Flares ([2]; 30 mg BID, 6 to ≤8 months (after prophylaxis ended), listed as febuxostat): 26.3%
Percentage of Subjects With Gout Flares ([2]; 30 mg BID, 8 to ≤10 months): (5.9) %
Percentage of Subjects With Gout Flares ([2]; 30 mg BID, 10 to ≤12 months): (11.8) %
Percentage of Subjects With Gout Flares ([2]; 30 mg BID, Day 1 to Month 6): (28.1)* %
Percentage of Subjects With Gout Flares ([2]; 30 mg BID, Day 1 to Month 6, listed as febuxostat): 28.1%
Percentage of Subjects With Gout Flares ([2]; 30 mg BID, Month 6 to Month 12): (31.6)* %
Percentage of Subjects With Gout Flares ([2]; 30 mg BID, Month 6 to Month 12, listed as febuxostat): 31.6%
Percentage of Subjects With Gout Flares ([2]; 30 mg BID, ≤2 months): (18.8)* %
Increase of percentage of subjects with at least one gout flare, months 6 to ≤8 relative to months 4 through 6 ([2]; 30 mg IR BID): 84%
Increase of percentage of subjects with at least one gout flare, months 6 to ≤8 relative to months 4 through 6 ([2]; 40/80 mg IR QD): 279%
Percentage of Subjects With Gout Flares ([2]; 40/80 mg QD, 2 to ≤4 months): (27.6) %
Percentage of Subjects With Gout Flares ([2]; 40/80 mg QD, 4 to ≤6 months): (17.9) %
Percentage of Subjects With Gout Flares ([2]; 40/80 mg QD, 4 to ≤6 months, listed as febuxostat): 17.9%
Percentage of Subjects With Gout Flares ([2]; 40/80 mg QD, 6 to ≤8 months (after prophylaxis ended)): (50.0) %
Percentage of Subjects With Gout Flares ([2]; 40/80 mg QD, 6 to ≤8 months (after prophylaxis ended), listed as febuxostat): 50.0%
Percentage of Subjects With Gout Flares ([2]; 40/80 mg QD, 8 to ≤10 months): (22.2) %
Percentage of Subjects With Gout Flares ([2]; 40/80 mg QD, 10 to ≤12 months): (23.1) %
Percentage of Subjects With Gout Flares ([2]; 40/80 mg QD, Day 1 to Month 6): (56.3) %
Percentage of Subjects With Gout Flares ([2]; 40/80 mg QD, Day 1 to Month 6, listed as febuxostat): 56.3%
Percentage of Subjects With Gout Flares ([2]; 40/80 mg QD, Month 6 to Month 12): (64.3) %
Percentage of Subjects With Gout Flares ([2]; 40/80 mg QD, Month 6 to Month 12, listed as febuxostat): 64.3%
Percentage of Subjects With Gout Flares ([2]; 40/80 mg QD, ≤2 months): (50.0) %
